Results as given in patent publication US20110262395A1, “SENSORY RECEPTORS FOR CHRONIC FATIGUE AND PAIN AND USES THEREOF” (UNIVERSITY OF UTAH RESEARCH FOUNDATION, priority 2008, published 2011).
Several values for one entry are separate records, joined by “and”; a condition that tells them apart may be missing. Identical values can stand only once. Entries after “also recorded” stand apart in the source; their conditions may differ.

What was measured:
ASIC receptor = conditions: cited from earlier work
ASIC3 = target: T1, ASIC3 (Homo sapiens, UniProt Q9UHC3); conditions: pH 7.0; cited from earlier work
T1 sequence (Q9UHC3 1-531): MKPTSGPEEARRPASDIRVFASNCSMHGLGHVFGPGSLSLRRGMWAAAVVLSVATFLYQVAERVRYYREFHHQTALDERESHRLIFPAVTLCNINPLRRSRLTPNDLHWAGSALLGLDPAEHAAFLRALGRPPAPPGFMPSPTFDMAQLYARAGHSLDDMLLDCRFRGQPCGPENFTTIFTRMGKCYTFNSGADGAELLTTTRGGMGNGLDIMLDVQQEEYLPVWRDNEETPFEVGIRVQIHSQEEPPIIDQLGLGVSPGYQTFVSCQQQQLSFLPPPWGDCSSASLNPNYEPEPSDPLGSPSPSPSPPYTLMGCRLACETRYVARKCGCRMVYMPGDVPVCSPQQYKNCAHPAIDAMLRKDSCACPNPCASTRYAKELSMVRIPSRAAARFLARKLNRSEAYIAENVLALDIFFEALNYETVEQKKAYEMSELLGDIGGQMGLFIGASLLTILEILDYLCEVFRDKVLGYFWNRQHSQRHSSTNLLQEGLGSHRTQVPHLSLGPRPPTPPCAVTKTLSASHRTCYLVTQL

TRPV1 receptors = TRPV1 receptors (Mus musculus, UniProt Q704Y3); conditions: cited from earlier work
TRPV1 = TRPV1 (Homo sapiens, UniProt Q8NER1); conditions: cited from earlier work
DRG neurons [1] = test: Calcium imaging of cultured DRG neurons: antagonist effects on responses to capsaicin, ATP or KCl (selectivity control); assay type: cell-based, mouse
Text: (§1) Harvesting/culturing cells/loading cells: Thirty-nine three week old (4 wells of DRG neurons plated from each mouse), C57Bl/6 mice were anesthetized with isoflurane, and euthanized by cervical dislocation. Dorsal root ganglia (DRG) from lumbar regions were removed into HBSS, treated with trypsin, washed with MEM (Invitrogen 51200-038) containing 10% FBS (Hyclone), 2.4% glucose, 1% glutamax (Invitrogen 35050-061) and 1% penicillin/streptomycin (Atlanta Biological B2110). DRG were triturated, pre-plated and incubated at 37° C. for one hour to reduce non-neuronal cells. Neurons were gently swirled and centrifuged (110×g, 5 min). Cells were removed, re-suspended and 30 μL plated onto the 4 center wells of 24-well plates coated with poly-L-lysine and laminin. A 0.5 mm thick silicone ring with a 4 mm diameter opening sealed to the surface of each well reduced the plating area in each well. Following 1 hour, wells were filled with 37° C. culture medium with 10 ng/mL GDNF (Glial Derived Neurotrophic Factor) (Preprotech 450-10). Sixteen to 23 hours after plating, cultures were loaded with Fura-2 AM (Molecular Probes F-1221) fluorescent dye for 40-60 minutes, then washed with pH 7.4 oxygenated observation medium containing no additional ATP (145 mM NaCl, 5 mM KCl, 2 mM CaCl2, 1 mM MgCl2, 1 mM Citrate, 10 mM glucose, 10 mM MES, 10 mM HEPES). The final well volume was 500 μL.
(§2) JYL-1422, LJO-328, A-317567, and a selected stereo isomer of A-317567 were each dissolved in 5% DMSO/95% water and a few μL of 1M HCl to a concentration of 10 mM, then quick frozen and stored at −20° C. Aliquots of antagonists were thawed and diluted to the appropriate concentrations just prior to use in the experiments. The strong buffers maintained the pH of these antagonists when mixed with metabolites.
(§3) Imaging procedure: All experiments were performed at room temperature (20-25° C.) to allow correspondence with most previous experiments using calcium imaging and patch clamp of DRG neurons. Cells were imaged using the Meta Imaging Series Metafluor program (Universal Imaging Corp). All cells identifiable as neurons based on their round shape, clear, single nucleus, were selected from a phase image of the field. At the end of each experiment, 200 nM capsaicin was applied, followed by a wash, and then applied 50 mM KCl. Capsaicin activation indicated the presence of TRPV1 receptors on neurons, and KCl ensured that recorded objects were active neurons, and established the maximal calcium response in each neuron. For some neurons the administration of capsaicin abolished the potential for responding to KCl, thus either a response to capsaicin or to KCl indicated viability of neurons, and only viable neurons were included in analyses.
For each field an average of 151+10 cells were tracked real-time. […]

DRG neurons [2] = conditions: patch-clamp, previous reports; cited from earlier work
DRG neurons [3] = test: Calcium imaging of cultured DRG neurons: percent of neurons responding to applied metabolites or capsaicin; assay type: cell-based, mouse; conditions: 200 nM
Text: as §1
Choice and concentrations of metabolites: Because the afferent receptors in muscle have been reported to be on the outside of blood vessels supplying muscle, values obtained for muscle interstitium from experiments using cat, rat, and human for muscle contraction evoked by mild to moderate to extreme exercise were used.
Protons (pH): Values between 7.6 and 6.2 were used spanning the range found in skeletal and cardiac muscle in mammals from above resting values to those found with injury and disease.
Lactate: 1-50 mM lactate was used, a range of values that spans from rest to ischemia in muscles of humans and rats and mice.
ATP: ATP concentrations in muscle interstitium increase from 300 nM at rest to 5 μM with ischemic muscle contraction (Hellsten et al., 1998; Li et al., 2003; Li et al., 2005). These levels were used in the experiments described below. […] To allow for physiological levels of desensitization of possible P2X receptors, freshly prepared ATP at 300 nM was used for at least 30 seconds before any further increases in ATP combined with other metabolites, to establish resting conditions in DRG neurons in these experiments. […] Also used were pH 6.0 and 4.0 without additional increases in metabolites to confirm that the imaging experiments could replicate recent reports using patch-clamp techniques (Leffler et al., 2006).
(§4) Combinations of metabolites applied to mimic naturally occurring conditions: When applied in an escalating series to mimic increases in metabolites that occur with muscle exercise and ischemic muscle exercise, the metabolite values shown in Table 1 were used. The values associated with pH 7.6 are at or below those normally found at rest in the mouse. The values at 7.4 approximate those found at rest. Generally, the low metabolite values associated with pH higher than 7.0 are likely to be non-noxious, while higher metabolite values at pH 7.0 and lower may be associated with pain. These values should bracket the physiological range of metabolites found in skeletal muscle with the last two values (those associated with 6.4 and 6.2) being higher than the physiological range (Bangsbo et al., 1993; Bangsbo et al., 2001; Li et al., 2003; Li et al., 2005; Reeh and Kress, 2001; Steinhagen et al., 1976).
Di-I labeling: In some experiments, neurons were identified as innervating muscle by prior muscle labeling with Di-I. Twelve 7-9 day old mice were anesthetized by cooling. […]

DRG neurons [4] = test: Calcium imaging of cultured DRG neurons: antagonist effects on responses to increasing metabolites (protons, lactate, ATP); assay type: cell-based, mouse
Text: as §1, §4, §2, §3
For each field an average of 151+10 cells were tracked real-time. […] FIGS. 1 and 2 show traces from these graphs. […]

P2X5 receptors = P2X5 receptors (Homo sapiens, UniProt Q93086); conditions: cited from earlier work
P2X3 receptors = target: T2, P2X3 receptors (Homo sapiens, UniProt P56373); conditions: cited from earlier work
T2 sequence (P56373 1-397): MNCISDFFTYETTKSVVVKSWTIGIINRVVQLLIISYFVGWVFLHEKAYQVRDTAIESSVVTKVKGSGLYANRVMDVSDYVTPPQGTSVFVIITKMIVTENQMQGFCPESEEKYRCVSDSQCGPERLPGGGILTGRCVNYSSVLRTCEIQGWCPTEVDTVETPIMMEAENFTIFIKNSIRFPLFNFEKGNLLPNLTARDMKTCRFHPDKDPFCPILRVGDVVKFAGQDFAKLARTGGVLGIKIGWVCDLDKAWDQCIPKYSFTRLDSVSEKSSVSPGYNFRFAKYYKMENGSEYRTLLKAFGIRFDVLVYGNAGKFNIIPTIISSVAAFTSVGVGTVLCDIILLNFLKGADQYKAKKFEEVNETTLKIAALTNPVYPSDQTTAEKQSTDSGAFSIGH

mouse P2X4 receptors = target: T3, mouse P2X4 receptors (Mus musculus, UniProt Q9JJX6); conditions: cited from earlier work
T3 sequence (Q9JJX6 1-388): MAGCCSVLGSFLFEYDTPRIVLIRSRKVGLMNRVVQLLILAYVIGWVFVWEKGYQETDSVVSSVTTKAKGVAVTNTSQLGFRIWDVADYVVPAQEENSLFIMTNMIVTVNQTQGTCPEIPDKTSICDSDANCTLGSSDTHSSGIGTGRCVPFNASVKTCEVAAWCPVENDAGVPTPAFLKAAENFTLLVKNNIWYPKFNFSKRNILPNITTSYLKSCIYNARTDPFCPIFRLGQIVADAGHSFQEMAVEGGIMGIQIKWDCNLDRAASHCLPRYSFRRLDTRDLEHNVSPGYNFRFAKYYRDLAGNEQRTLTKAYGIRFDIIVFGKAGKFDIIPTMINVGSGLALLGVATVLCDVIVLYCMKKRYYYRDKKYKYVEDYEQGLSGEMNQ

Sequence of TRPV1 (Q8NER1 whole entry, species assumed): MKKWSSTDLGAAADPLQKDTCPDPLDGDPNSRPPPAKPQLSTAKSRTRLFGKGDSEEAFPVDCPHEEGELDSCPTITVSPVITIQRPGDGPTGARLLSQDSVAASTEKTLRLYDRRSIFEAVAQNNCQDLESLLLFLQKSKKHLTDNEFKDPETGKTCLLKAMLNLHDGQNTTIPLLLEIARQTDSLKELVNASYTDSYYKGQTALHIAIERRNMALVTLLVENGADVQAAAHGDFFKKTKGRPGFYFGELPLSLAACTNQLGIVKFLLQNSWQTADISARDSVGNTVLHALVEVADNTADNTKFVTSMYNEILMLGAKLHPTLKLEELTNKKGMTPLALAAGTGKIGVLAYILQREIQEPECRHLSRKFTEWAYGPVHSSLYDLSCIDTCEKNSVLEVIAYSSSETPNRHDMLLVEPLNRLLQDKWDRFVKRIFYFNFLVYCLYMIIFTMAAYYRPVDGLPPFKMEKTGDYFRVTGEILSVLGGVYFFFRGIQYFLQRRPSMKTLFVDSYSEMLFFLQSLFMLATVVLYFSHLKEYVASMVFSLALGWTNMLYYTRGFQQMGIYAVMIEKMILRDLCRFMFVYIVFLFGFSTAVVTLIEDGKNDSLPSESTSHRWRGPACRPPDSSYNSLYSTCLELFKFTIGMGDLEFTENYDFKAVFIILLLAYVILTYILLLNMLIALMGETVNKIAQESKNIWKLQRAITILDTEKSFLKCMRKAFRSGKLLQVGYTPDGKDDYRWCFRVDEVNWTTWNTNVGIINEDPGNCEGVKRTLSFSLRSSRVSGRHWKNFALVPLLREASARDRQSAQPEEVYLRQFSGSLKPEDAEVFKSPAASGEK
Sequence of TRPV1 receptors (Q704Y3 whole entry): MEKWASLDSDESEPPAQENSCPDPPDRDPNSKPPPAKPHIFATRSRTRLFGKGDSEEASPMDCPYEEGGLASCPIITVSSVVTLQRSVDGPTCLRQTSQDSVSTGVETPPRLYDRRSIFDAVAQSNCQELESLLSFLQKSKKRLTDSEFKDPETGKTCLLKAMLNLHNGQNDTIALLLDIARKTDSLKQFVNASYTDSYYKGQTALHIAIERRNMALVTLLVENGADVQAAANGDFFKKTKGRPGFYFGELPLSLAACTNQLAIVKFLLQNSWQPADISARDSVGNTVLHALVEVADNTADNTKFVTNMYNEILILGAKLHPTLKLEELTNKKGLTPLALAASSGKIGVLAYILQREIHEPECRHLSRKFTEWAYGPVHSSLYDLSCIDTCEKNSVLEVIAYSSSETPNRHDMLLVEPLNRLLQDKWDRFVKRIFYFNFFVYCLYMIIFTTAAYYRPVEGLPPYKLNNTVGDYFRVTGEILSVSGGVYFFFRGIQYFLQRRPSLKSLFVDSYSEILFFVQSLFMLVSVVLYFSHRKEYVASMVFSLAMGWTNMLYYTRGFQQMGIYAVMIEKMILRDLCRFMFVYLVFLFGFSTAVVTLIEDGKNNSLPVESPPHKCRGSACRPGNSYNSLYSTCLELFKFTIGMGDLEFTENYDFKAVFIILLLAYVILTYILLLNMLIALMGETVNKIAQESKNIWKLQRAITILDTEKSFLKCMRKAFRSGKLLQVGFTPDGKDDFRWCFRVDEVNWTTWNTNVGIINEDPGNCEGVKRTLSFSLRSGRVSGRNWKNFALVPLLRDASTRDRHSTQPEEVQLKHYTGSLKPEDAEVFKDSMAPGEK
Sequence of P2X5 receptors (Q93086 whole entry): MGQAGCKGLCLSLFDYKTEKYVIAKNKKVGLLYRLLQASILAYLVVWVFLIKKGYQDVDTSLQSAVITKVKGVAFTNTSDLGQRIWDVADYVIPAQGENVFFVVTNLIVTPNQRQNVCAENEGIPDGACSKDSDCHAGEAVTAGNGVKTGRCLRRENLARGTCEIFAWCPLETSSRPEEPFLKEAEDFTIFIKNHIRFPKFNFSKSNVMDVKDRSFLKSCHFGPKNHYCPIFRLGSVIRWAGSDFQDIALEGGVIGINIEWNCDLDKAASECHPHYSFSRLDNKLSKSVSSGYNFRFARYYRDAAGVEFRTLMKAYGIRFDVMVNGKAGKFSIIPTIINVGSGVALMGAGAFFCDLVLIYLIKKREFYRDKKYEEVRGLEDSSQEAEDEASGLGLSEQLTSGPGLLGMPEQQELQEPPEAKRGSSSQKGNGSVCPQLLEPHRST

For `N=C(N)NC(=O)c1nc(Cl)c(N)nc1N` [Amiloride], the “effect on ASIC receptor responses to low pH” value (ASIC receptor) is given as “antagonizes all ASIC receptor responses to low pH” and the “effect on ASIC3 responses to moderate pH levels” value (ASIC3) is given as “enhanced”.

In the case of `Oc1cc2c(cc1O)CN(C(=S)NCCc1ccc(Cl)cc1)CCC2` [Capsazepine], the “inhibitory action on pH responses of TRPV1 receptors” value (TRPV1 receptors) is listed as “little inhibitory action”.

In the case of `Cc1ccc(CC(CNC(=S)NCc2ccc(NS(C)(=O)=O)c(F)c2)COC(=O)C(C)(C)C)cc1C` (centres unmarked) [JYL-1433], the TRPV1 antagonism (TRPV1) is listed as “potent full antagonists of TRPV1” and the “responses to KCl application in presence of antagonist” value (DRG neurons [1]; antagonist 2 μM, 50 mM KCl) is listed as “remained normal”.

For `COc1cc(CNC(=O)CCCC/C=C/C(C)C)ccc1O` [capsaicin], the “capsaicin responses in DRG neurons, percent” value (DRG neurons [2]) is given as 36% and 20%, the “percentage of DRG neurons responding with rapid calcium increase” value (“percentage … with rapid calcium increase” below) (DRG neurons [3]; all DRG neurons) is given as 50.9±4.2% and the “percentage … with rapid calcium increase” value (DRG neurons [3]; all muscle labeled neurons) is given as 48.8 ± 5.8%. For the same compound, the “percentage … with rapid calcium increase” value (DRG neurons [3]; metabolite-responding DRG neurons) was 71.9 ± 4.2% and the “percentage … with rapid calcium increase” value (DRG neurons [3]; muscle labeled metabolite responders) was 63.4 ± 5.8%.

In the case of TNP-ATP, the “capsaicin and KCl responses in presence of antagonist” value (DRG neurons [1]; any dose) is reported as “unaffected”, the “effect on responses to increasing metabolites” value (DRG neurons [4]; antagonist 10 nM) is reported as “facilitated responses; also recorded: can increase responses of DRG neurons to increasing metabolites” and the “effect on responses to increasing metabolites” value (DRG neurons [4]; antagonist 200 μM) is reported as “blocked nearly all responses to metabolites; also recorded: abolished most responses to increasing metabolites”. For the same compound, the “effect on metabolite responses associated with pH 6.8 and above” value (DRG neurons [4]; antagonist 1 and 10 μM) was “had little effect”, the “effect on responses to low metabolites” value (DRG neurons [4]; antagonist 1 and 10 μM (FIG. 2 legend: 1 μM), metabolites between pH 7.3-7.0) was “reduced low metabolite responses; also recorded: reduced responses of DRG neurons; also recorded: eliminated most responses to low metabolites” and the “effect on responses to increasing metabolites” value (DRG neurons [4]; antagonist 200-300 μM, doses effective at all P2X receptors) was “eliminated nearly all responses to increasing metabolites”. For the same compound, the “effect on responses to metabolites” value (DRG neurons [4]; antagonist at 10 μM (so in the source), p<0.05) was “increased responses to metabolites”, the IC50 (P2X5 receptors) was 0.5 µM and the IC50 (P2X3 receptors) was 0.00031 µM and 0.0003 µM. For the same compound, the IC50 (mouse P2X4 receptors) was 16 µM.
